Results taken from ChEMBL document CHEMBL4354807, “Natural Product Albiziabioside A Conjugated with Pyruvate Dehydrogenase Kinase Inhibitor Dichloroacetate To Induce Apoptosis-Ferroptosis-M2-TAMs Polarization for Combined Cancer Therapy” (J Med Chem, 2019).
Activity calls are given as the source filed them. No cut-off for these calls is given here.

Key:
[1] = system: MCF7; assay: Anticancer activity against human MCF7 cells overexpressing PDK assessed as reduction in cell viability after 72 hrs by MTT assay; assay type: functional, cell-based; conditions: MCF7, 72 h
[2] = Toxicity in BALB/c nude mouse xenografted with human MCF7 cells assessed as mouse death at 2 mg/kg, iv administered every 2 days for 2 weeks measured after 14 days; assay type: organism-based; conditions: in vivo, 336 h
[3] = system: MCF7; assay: Induction of apoptosis in human MCF7 cells assessed as early apoptotic cells at 2 uM after 24 hrs by Annexin V-FITC/propidium iodide staining-based flow cytometric analysis (reference value: 3.53 %); assay type: functional
[4] = system: L02; assay: Cytotoxicity against human LO2 cells assessed as reduction in cell viability after 72 hrs by MTT assay; assay type: cell-based; conditions: L02, 72 h
[5] = system: 4T1; assay: Anticancer activity against mouse 4T1 cells expressing PDK assessed as reduction in cell viability after 72 hrs by MTT assay; assay type: functional, cell-based; conditions: 4T1, 72 h
[6] = system: Mus musculus; assay: Modulation of tumor immunosuppressive activity in BALB/c mouse xenografted with mouse 4T1 cells assessed as increase in TNFalpha expression in tumor administered intratumorally every other day for 14 days measured at 2 days post-last dose by ELISA; assay type: functional, organism-based
[7] = system: HCT-116; assay: Anticancer activity against human HCT116 cells expressing PDK assessed as reduction in cell viability after 72 hrs by MTT assay; assay type: functional, cell-based; conditions: HCT-116, 72 h
[8] = system: Mus musculus; assay: Modulation of tumor immunosuppressive activity in BALB/c mouse xenografted with mouse 4T1 cells assessed as increase in IFNgamma expression in serum administered intratumorally every other day for 14 days measured at 2 days post-last dose by ELISA; assay type: functional, organism-based
[9] = Cytotoxicity against human HBMEC cells assessed as reduction in cell viability after 72 hrs by MTT assay; assay type: cell-based
[10] = system: Mus musculus; assay: Modulation of tumor immunosuppressive activity in BALB/c mouse xenografted with mouse 4T1 cells assessed as increase in TNFalpha expression in serum administered intratumorally every other day for 14 days measured at 2 days post-last dose by ELISA; assay type: functional, organism-based
[11] = system: 4T1; assay: Induction of M2-TAM polarization in mouse 4T1 cells assessed as decrease in Arg1 protein level at 2 uM after 48 hrs by Western blot analysis relative to control; assay type: functional
[12] = system: MCF7; assay: Induction of ferroptosis in human MCF7 cells assessed as cell death at 2 uM pretreated with iron chelating agent deferoxamine followed by compound treatment by MTT assay; assay type: functional, cell-based
[13] = system: Mus musculus; assay: Modulation of tumor immunosuppressive activity in BALB/c mouse xenografted with mouse 4T1 cells assessed as increase in IL12 expression in tumor administered intratumorally every other day for 14 days measured at 2 days post-last dose by ELISA; assay type: functional, organism-based
[14] = system: MCF7; assay: Induction of apoptosis in human MCF7 cells assessed as viable cells at 2 uM after 24 hrs by Annexin V-FITC/propidium iodide staining-based flow cytometric analysis (reference value: 93.39 %); assay type: functional; conditions: MCF7, 24 h, read-out: Activity
[15] = Selectivity index, ratio IC50 for cytotoxicity against human LO2 cells assessed as reduction in cell viability after 72 hrs by MTT assay to IC50 for anticancer activity against human MCF7 cells assessed as reduction in cell viability after 72 hrs by MTT assay; assay type: toxicity, cell-based; conditions: LO2 cells versus MCF7 cells, read-out: Ratio IC50
[16] = system: MCF7; assay: Cytotoxicity against human MCF7 cells assessed as cell death at 2 uM pretreated with Z-VAD-fmk followed by compound addition by MTT assay; assay type: functional, cell-based
[17] = Toxicity in BALB/c nude mouse xenografted with human MCF7 cells assessed as effect on AST level in blood at 2 mg/kg, iv administered every 2 days for 2 weeks measured after 14 days; assay type: organism-based; conditions: in vivo, 336 h
[18] = system: MCF7; assay: Induction of apoptosis in human MCF7 cells assessed as late apoptotic cells at 2 uM after 24 hrs by Annexin V-FITC/propidium iodide staining-based flow cytometric analysis (reference value: 2.97 %); assay type: functional
[19] = Selectivity index, ratio IC50 for cytotoxicity against human HBMEC cells assessed as reduction in cell viability after 72 hrs by MTT assay to IC50 for anticancer activity against human HCT116 cells assessed as reduction in cell viability after 72 hrs by MTT assay
[20] = system: A-375; assay: Synergistic anticancer activity against human A375 cells expressing assessed as combination index after 72 hrs by MTT assay; assay type: functional
[21] = system: MCF7; assay: Induction of metabolic reversal from aerobic glycolysis to oxidative phosphorylation in human MCF7 cells assessed as effect on extracellular acidification rate at 2 uM pretreated for 4 hrs followed by glucose addition after 25 mins followed by subsequent addition of oligomycin A after 50 mins followed by 2-DG addition after 80 mins by seahorse XF24 extracellular flux analyzer assay; assay type: functional, cell-based
[22] = system: 4T1; assay: Synergistic anticancer activity against mouse 4T1 cells expressing assessed as combination index after 72 hrs by MTT assay; assay type: functional
[23] = system: Mus musculus; assay: Modulation of tumor immunosuppressive activity in BALB/c mouse xenografted with mouse 4T1 cells assessed as decrease in IL10 expression in tumor administered intratumorally every other day for 14 days measured at 2 days post-last dose by ELISA; assay type: functional, organism-based
[24] = system: A-375; assay: Anticancer activity against human A375 cells expressing PDK assessed as reduction in cell viability after 72 hrs by MTT assay; assay type: functional, cell-based; conditions: A-375, 72 h
[25] = Toxicity in BALB/c nude mouse xenografted with human MCF7 cells assessed as effect on body weight at 2 mg/kg, iv administered every 2 days for 2 weeks measured after 14 days; assay type: organism-based; conditions: in vivo, 336 h
[26] = system: L02; assay: Cytotoxicity against human LO2 cells assessed as combination index after 72 hrs by MTT assay; assay type: cell-based; conditions: l02, 72 h
[27] = system: MCF7; assay: Antitumor activity against human MCF7 cells xenografted in BALB/c nude mouse assessed as suppression of tumor progression at 2 mg/kg, iv administered every two days for two weeks measured after 14 days relative to control; assay type: functional
[28] = molecular target: [Pyruvate dehydrogenase (acetyl-transferring)] kinase isozyme 1, mitochondrial (Homo sapiens) (UniProt Q15118); assay: Inhibition of PDK1 (unknown origin) expressed in human MCF7 cells using PDK tide as substrate measured after 90 mins in presence of ATP by ADP-Glo luminescent kinase assay
[29] = Selectivity index, ratio IC50 for cytotoxicity against human HBMEC cells assessed as reduction in cell viability after 72 hrs by MTT assay to IC50 for anticancer activity against human A375 cells assessed as reduction in cell viability after 72 hrs by MTT assay
[30] = system: MCF7; assay: Effect on lipid peroxidation in human MCF7 cells assessed as increase in […] at 2 uM after 15 mins by BODIPY-C11 dye based fluorescence imaging analysis relative to control; assay type: functional
[31] = system: 4T1; assay: Inhibition of glycolysis in mouse 4T1 cells expressing PDK assessed as reduction in intracellular lactate level at 2 uM after 6 hrs by microplate reader assay; assay type: functional, cell-based
[32] = Toxicity in BALB/c nude mouse xenografted with human MCF7 cells assessed as effect on spleen at 2 mg/kg, iv administered every 2 days for 2 weeks measured after 14 days by hematoxylin and eosin staining based histopathological analysis; assay type: organism-based; conditions: in vivo, 336 h
[33] = system: Mus musculus; assay: Modulation of tumor immunosuppressive activity in BALB/c mouse xenografted with mouse 4T1 cells assessed as increase in IL12 expression in serum administered intratumorally every other day for 14 days measured at 2 days post-last dose by ELISA; assay type: functional, organism-based
[34] = system: MCF7; assay: Induction of ferroptosis in human MCF7 cells assessed as cell death at 2 uM pretreated with exogenous iron Fe2+ followed by compound treatment by MTT assay; assay type: functional, cell-based

In the case of CC1(C)CC[C@]2(C(=O)O)CC[C@]3(C)C(=CC[C@@H]4[C@@]5(C)CC[C@H](O[C@@H]6O[C@H](CO[C@@H]7OC[C@H](O)[C@H](O)[C@H]7O)[C@@H](O)[C@H](O)[C@H]6NC(=O)C(Cl)Cl)C(C)(C)[C@@H]5CC[C@]43C)[C@@H]2C1, the IC50 [1] is reported as 0.43 µM, the Activity [2] is reported as “Non-Toxic” and the Activity [3] is reported as 25.16%. For the same compound, the IC50 [4] was 53.1 µM, the IC50 [5] was 1.31 µM and the Activity [6] was “Active”. The IC50 [7] was 3.87 µM, the Activity [8] was “Active” and the IC50 [9] was 38.2 µM. The Activity [10] was “Active”, the “fold change (FC)” value [11] was 2.1 and the Activity [12] was “inactive”. For the same compound, the Activity [13] was “Active”, the viability at 2 µM [14] was 47% and the selectivity ratio at 72 h [15] was 124. For the same compound, the Activity [16] was “inactive”, the Activity [17] was “Non-Toxic” and the Activity [18] was 22.92%. For the same compound, the “Ratio IC50” value [19] was 9.87, the CI [20] was 0.7 and the Activity [21] was “Active”. The CI [22] was 0.09, the Activity [23] was “Active” and the IC50 [24] was 3.78 µM. The Activity [25] was “Non-Toxic”, the CI [26] was 2.13 and the Activity [27] was 100%. The inhibition [28] was “Active”, the “Ratio IC50” value [29] was 10.11 and the “fold change (FC)” value [30] was 2.5. The inhibition [31] was “Active”, the Activity [32] was “Non-Toxic” and the Activity [33] was “Active”. The Activity [34] was “Active”.
